In patent US4141974A, “Veterinary method employing certain aureolic acid compounds” (Imperial Chemical Industries Limited, priority 1976, dated 1979):

Columns and labels:
chickens [1] = assay: Chicken growth trial, chromomycin A3 (Example 12); assay type: in vivo
From the text: (§1) Groups of 20 randomised 1-day old chickens were place in small floor pens, bedded with wood shavings and provided with automatic drinking fountains. The birds in 16 randomly chosen such pens were fed for 6 days on a nutritionally balanced control diet containing no known growth promoter, and the birds in other pens (four pens per treatment diet) were fed for the same period on the same basal diet to which the indicated weight of mixed mithramycins obtained as in Example 2 or 3, or a known chicken growth promoter, penicillin or nitrovin as a positive control, was added. At the end of the test period, the mean weight per bird in the control group and each test group was determined and the percentage weight increase for each test group as compared with the control group was calculated. The following results were obtained:
The procedure described in Example 4 was repeated, using chromomycin A3, obtained from Takeda Chemical Industries Ltd., Osaka, Japan, instead of the mixed mithramycins.

chickens [2] = assay: Chicken growth trial, 1-day old chickens, 6 days (Example 4); assay type: in vivo; details: for Mean final weight per bird: * significant at p<0.001
From the text: as §1, with “calculated.” for “calculated. The following results were obtained:”

chickens [3] = assay: Chicken growth trial, mixed mithramycins from Streptomyces argillaceus (Example 7); assay type: in vivo
From the text: as §1
The procedure described in Example 4 was repeated, using the mixed mithramycins obtained by culturing Streptomyces argillaceus A.T.C.C. 12956 in known manner, and the following results were obtained: […]

chickens [4] = assay: Chicken growth trial, magnesium chelate of Example 2 (Example 8); assay type: in vivo; details: * P<0.001
Procedure: Groups of 20 randomised 1-day old chickens were place in small floor pens, bedded with wood shavings and provided with automatic drinking fountains. […] At the end of the test period, the mean weight per bird in the control group and each test group was determined and the percentage weight increase for each test group as compared with the control group was calculated.

chickens [5] = assay: Chicken growth trial, magnesium chelate of mithramycin A from S. argillaceus (Example 9); assay type: in vivo; details: * P<0.001
From the text: The procedure described in Example 4 was repeated, using the magnesium chelate of mithramycin A, obtained in known manner from fermentation of S. argillaceus A.T.C.C.

chickens [6] = assay: Chicken growth trial, pen of 20 birds (Example 5); assay type: in vivo; details: for Mean final weight-20 birds: mean total weight of a pen of 20 birds
From the text: as §1
In a further growth trial, the procedure described in Example 4 was repeated. In this case, the weights are expressed as the mean total weight of a pen of 20 birds.

pigs = assay: Pig growth trial, 9 weeks (Example 11); assay type: in vivo
From the text: Seventy-two pigs weighing approximately 20kg. each were allocated into 8 matched treatment groups of 9 pigs, on the basis of sex and live weight. Each treatment group was allocated to one particular diet, and each animal in each group was fed individually on its appropriate diet, accurately weighed according to a feeding scale based on live weight, and adjusted weekly. The daily live weight gain in gammes (DLWG) and food conversion ratio (FCR -- the ratio of kg. feed per kg. of live weight gain) were determined for each group at the end of a 9 week trial period.

discard cockerels = assay: Growth trial in discard cockerels, 4 weeks (Example 10); assay type: in vivo, chicken; details: 10 ppm in basal diet
From the text: as §1
The procedure described in Example 4 was repeated using 4 pens each of 30 discard cockerels for each diet, and allowing the trial to run for 4 weeks.

[7] = 10 ppm in basal diet, nitrovin * p<0.001, chromomycin A3 *** p<0.05

SMILES: CC1(C)S[C@@H]2[C@H](NC(=O)Cc3ccccc3)C(=O)N2[C@H]1C(=O)O [penicillin]
- % effect v. control (chickens [1]; 25 ppm in basal diet): 12.7%
- Mean final weight per bird (chickens [1]; 25 ppm in basal diet, * significant at p<0.001): 46.73 g
- % effect v. control (weight increase) (chickens [2]; 25 ppm in basal diet): 11.6%
- Mean final weight per bird (chickens [2]; 25 ppm in basal diet): 42.57 g
- % effect v. control (chickens [3]; 25 ppm in basal diet): 18.8%
- Mean final weight per birds (chickens [3]; 25 ppm in basal diet): 47.6 g
- % effect v. control (chickens [4]; 25 ppm in basal diet): 16.1%
- Mean final weight per bird (chickens [4]; 25 ppm in basal diet): 47.95 g
- % effect v. control (chickens [5]; 25 ppm in basal diet): 16.1%
- Mean final weight per bird (chickens [5]; 25 ppm in basal diet): 47.95 g
- % effect v. control (chickens [6]; 25 ppm in basal diet): 18.25%
- Mean final weight-20 birds (chickens [6]; 25 ppm in basal diet): 876 g

SMILES: CO[C@@H]1[C@H](O)C[C@@H](O[C@@H]2C[C@H](Oc3cc4cc5c(c(O)c4c(O)c3C)C(=O)[C@@H](O[C@H]3C[C@@H](O[C@H]4C[C@@H](O[C@H]6C[C@](C)(O)[C@@H](OC(C)=O)[C@H](C)O6)[C@H](O)[C@@H](C)O4)[C@H](O)[C@@H](C)O3)[C@H]([C@H](OC)C(=O)[C@@H](O)[C@@H](C)O)C5)O[C@H](C)[C@@H]2OC(C)=O)O[C@@H]1C [chromomycin A3]
- % effect v. control (chickens [1]; 5 ppm in basal diet): 7.3%
- Mean final weight per bird (chickens [1]; 5 ppm in basal diet, ** significant at p<0.01): 44.51 g
- % effect v. control (chickens [1]; 10 ppm in basal diet): 5.4%
- Mean final weight per bird (chickens [1]; [7]): 43.68 g

SMILES: COC(=O)N/N=C/c1c[n+]([O-])c2ccccc2[n+]1[O-] [carbadox]
- FCR (food conversion ratio) (pigs; high copper diet, 20 ppm, * significant at p<0.05): 2.184 kg. feed per kg. of live weigh
- DLWG (daily live weight gain) (pigs; high copper diet, 20 ppm, ** significant at p<0.01): 672.7 gammes
- FCR (food conversion ratio) (pigs; low copper diet, 20 ppm): 2.292 kg. feed per kg. of live weigh
- DLWG (daily live weight gain) (pigs; low copper diet, 20 ppm, * significant at p<0.05): 630.6 gammes

SMILES: N=C(N)NN=C(/C=C/c1ccc([N+](=O)[O-])o1)/C=C/c1ccc([N+](=O)[O-])o1 [nitrovin]
- % effect v. control (chickens [1]; 10 ppm in basal diet): 9.7%
- Mean final weight per bird (chickens [1]; [7]): 45.46 g
- % effect v. control (weight increase) (chickens [2]; 10 ppm in basal diet): 12.7%
- Mean final weight per bird (chickens [2]; 10 ppm in basal diet): 42.99 g
- DLWG (daily live weight gain) (pigs; high copper diet, 10 ppm): 579.2 gammes
- FCR (food conversion ratio) (pigs; high copper diet, 10 ppm): 2.308 kg. feed per kg. of live weigh
- DLWG (daily live weight gain) (pigs; low copper diet, 10 ppm): 567.0 gammes
- FCR (food conversion ratio) (pigs; low copper diet, 10 ppm): 2.381 kg. feed per kg. of live weigh
- % effect v. control (chickens [3]; 10 ppm in basal diet): 12.9%
- Mean final weight per birds (chickens [3]; 10 ppm in basal diet): 45.2 g
- % effect v. control (chickens [4]; 10 ppm in basal diet): 10.6%
- Mean final weight per bird (chickens [4]; 10 ppm in basal diet): 45.67 g
- % effect v. control (chickens [5]; 10 ppm in basal diet): 10.6%
- Mean final weight per bird (chickens [5]; 10 ppm in basal diet): 45.67 g
- % effect v. control (chickens [6]; 10 ppm in basal diet): 11.6%
- Mean final weight-20 birds (chickens [6]; 10 ppm in basal diet): 826 g
- Food conversion ratio (discard cockerels; ** significant at p<0.001): 1.800
- Mean final weight per bird (discard cockerels; mixed mithramycins * significant at p<0.01, nitrovin unmarked): 339 g
